Data as given in patent US20070286895A1, “WOUND DRESSING” (BRISTOL-MYERS SQUIBB COMPANY, priority 2002, published 2007).

Test system: human whole skin
Test: Whole skin silver staining study, Franz type diffusion cell (Example 2)
Details: dressing hydrated with 200 μl saline, 24 hours, 32° C., FIG. 1
Description: Skin staining studies were carried out using an adaptation of a Franz type horizontal glass diffusion cell as described in Dugard et al, 1984. Whole human skin and wound tissue samples (1 cm^2 discs) were punched out using an Osborne arch punch and placed epidermal side uppermost on the receptor chamber. The donor chamber was then gently placed on top of the receptor chamber. The whole cell was clamped together and placed into a water bath maintained at 32° C.±1° C. The underlying whole skin was bathed in saline.
Individual silver-containing wound dressings (0.64 1 cm^2) were cut out and placed onto the centre of a piece of human whole skin. 200 μl of saline was placed into the donor chamber to hydrate each dressing to mimic a moderately exuding wound. Appoximately 5-10 mg of Flamazine cream was placed onto the skin and gently smoothed over the exposed skin surface by means of a small spatula. […] Each cell was left for 24 hours and images were taken using a Polaroid digital microscope camera.

SMILES: O=[N+]([O-])[O-].[Ag+] [silver nitrate]
- silver staining of skin: significant silver staining
